Bounds are passed on as bounds.

For series [1], the target named is c-Met (Homo sapiens (Human), UniProt P08581). In words: Enzymatic inhibitory activity, mobility shift assay, c-Met. In kind it is biochemical. As to conditions: kinase mobility shift assay. An excerpt:
(§1) Compounds against MET, SRC and CSF1R kinases were screened by use of mobility shift assay. The core of this screening platform was the MSA based on microfluidic chip technology, which applied the basic idea of capillary electrophoresis to a microfluidic environment. The substrate used in the experiment was a polypeptide with fluorescent labeling. Under the catalysis of the enzyme in the reaction system, the substrate was converted into a product, and it carried charge also changed accordingly. MSA utilized the difference in charge between the substrate and the product to separate them, and detect them separately.
(§2) The operation method is briefly described as follows:
(§3) The powders of the compound were dissolved in 100% DMSO to make a 10 mM stock solution. The initial test concentration of the compound was 10,000 nM, 3-fold serial dilution, 10 concentrations, and repeated hole detection. […] A stop detection solution was added to stop the enzymatic reaction, and the conversion rate was read with Caliper EZ Reader II.
(§4) wherein: Conversion%_sample is the conversion rate reading of the sample; Conversion%_min: the average value of the negative control wells, representing the conversion rate readings of the wells without enzyme activity; Conversion%_max: the average ratio of the positive control wells, representing the conversion rate readings of the wells without compound inhibition.
(§5) Dose-response curve fitting: with the log value of the concentration as the X-axis, and the percentage inhibition rate as the Y-axis, the log(inhibitor) vs. response-Variable slope of the analysis software GraphPad Prism 5 was used to fit the dose-response curve, thereby obtaining IC50 values of each compound against inhibition of enzyme activity.

The nature of series [2]: Pharmacokinetic experiments in rats. The following applies: male SD rats, 1 mg/kg, oral gavage and intravenous injection. In kind it is in vivo. Here is the method: Male SD rats were divided into groups, 3 rats in each group, and the compound of the Examples (1 mg/kg) was given by oral, single gavage and intravenous injection, respectively. The animals were fasted overnight before the experiments, and the fasting time was from 10 hours before administration to 4 hours after administration. Blood was collected at 0.25, 0.5, 1, 2, 4, 8 and 24 hours after administration in the oral group, and at 0.083, 0.25, 0.5, 1, 2, 4, 8 and 24 hours after injection in the intravenous injection group. After anesthesia with isoflurane using a small animal anesthesia machine, 0.3 mL of whole blood was collected through the fundus venous plexus and placed in a heparin anticoagulant tube. The sample was centrifuged at 4° C.and 4000 rpm for 5 minutes, the plasma was transferred to a centrifuge tube, and placed at […] and stored until analysis. Plasma samples were extracted by protein precipitation, and the extract was analyzed by LC/MS/MS.

Series [3] deals with Ba/F3-TEL-CSF1R. In words: Cell viability assay against Ba/F3-TEL-CSF1R cells (CellTiter-Glo). The following applies: 72 hours, read-out: Baf3-TEL CSF1R IC50. The format is cell-based. Here is the method: (§6) Starting from 200 μM, the compound was subjected to a 3-fold gradient with DMSO, and a total of 9 concentrations were diluted to prepare a 200-fold drug solution. 3 μl of the 200-fold concentration compound was diluted with 197 μl of complete medium to obtain a 3-fold concentration compound. 50 μl of the latter was took and added to the cell well plate, and culture was continued for 72 hours. The cell culture plate was equilibrated to room temperature before assay, and 40 μL of CellTiter-Glo (Promega, Cat# G7571) was added to each well, and the cells were lysed by shaking for two minutes. The cell plate was then left at room temperature for 60 minutes to stabilize the luminescence signal. Luminescence values were read using a PerkinElemer Envision multifunctional plate reader.
(§7) Data analysis: • Luminescence values were processed using the following formula:
(§8) %Inh=(Max signal−Compound signal)/(Max signal−Min signal)×100 • Max signal: value of a DMSO treatment group; • Min signal: value of a blank medium group.
(§9) The processed data were analyzed using GraphPad Prism 5.0 software, and nonlinear S-curve regression was used to fit the data to derive dose-response curves from which IC50 values were calculated.

The target of series [4] is SRC (Homo sapiens (Human), UniProt P12931). Description: Enzymatic inhibitory activity, mobility shift assay, SRC. The following applies: read-out: SRC IC50; kinase mobility shift assay.
Description: The powders of the compound were dissolved in 100% DMSO to make a 10 mM stock solution. […] A stop detection solution was added to stop the enzymatic reaction, and the conversion rate was read with Caliper EZ Reader II.
Series [5] deals with SNU-5 cells. Description: Cell viability assay against SNU-5 cells (CellTiter-Glo). In kind it is cell-based. The following applies: Homo sapiens, 72 hours. Here is the method:
Human gastric cancer cell line SNU-5 culture medium was IMDM basal culture medium supplemented with 10% FBS (fetal bovine serum) and 1% P/S (penicillin/streptomycin), Ba/F3-TEL-CSF1R stably transfected cell line medium was RPMI-1640 medium supplemented with 10% FBS and 1% P/S. Both cell lines were cultured in a carbon dioxide incubator at 37° C. with a CO2 concentration of 5%.
as §6, with “In the assay of compounds, SNU-5 and Ba/F3-TEL-CSF1R cells were plated in 96-well cell culture plates (Corning, Cat# 3610) at a concentration of 3000 cells/100 μL per well, and cultured overnight. Starting” for “Starting”
as §7, §8, §9
(In general: In ATP-based viability assays light output follows the ATP content of the culture.)

The target in series [6] is CSF1R (Homo sapiens (Human), UniProt P07333). Description: Enzymatic inhibitory activity, mobility shift assay, CSF1R. The format is biochemical. As to conditions: kinase mobility shift assay.
Description: as §1, §2, §3, §4, §5

Series [7] is described as follows: Blood-brain distribution experiments in rats. The format is in vivo. As to conditions: male SD rats. Here is the method: The male SD rats were divided into groups, 12 in each group, and the compound of the Examples (10 mg/kg) was administered orally or by gavage. The animals were fasted overnight before the experiments, and the fasting time was from 10 hours before administration to 4 hours after administration. According to the previous pharmacokinetic data, the rats in the Example 1 group were killed at 0.25, 0.5, 2 and 6 hours after administration; the rats in the TPX-0022 group were killed at 0.25, 1, 4 and 8 hours after administration, and blood and brain tissue were collected. After the samples were processed, they were centrifuged at 4° C., 4000 rpm for 5 min, and the plasma was transferred to a centrifuge tube and stored at −80° C.until analysis. Plasma samples were extracted by protein precipitation, and the extract was analyzed by LC/MS/MS.

Series [8] has as its system HCC827 cells. Description: Cell viability assay against HCC827 cells (CellTiter-Glo). The format is cell-based, human. The following applies: 72 hours. Here is the method: Human non-small cell lung cancer cells, HCC827 cells, were cultured in an incubator (37° C., 5% CO2) with 1640 medium plus 10% FBS (fetal bovine serum) and 1% P/S (penicillin/streptomycin). In the assay of the compound, the HCC827 cells were plated in a 96-well transparent flat-bottomed black wall plate (Corning, Cat# 3603) at a concentration of 3000 cells/90 uL per well, and the compound was diluted 11 times in a 3-fold gradient starting from 10 mM, and prepared a 10-fold drug solution. Then 10 μL was taken and added to 90 μL of cell culture medium (DMSO final concentration was 0.1%, v/v). After 72 hours of treatment, 100 μL of CellTiter-Glo (Promega, Cat#G7572) was added, cells were lysed by shaking on an orbital shaker for 5 minutes. The cell plate was then left at room temperature for 20 minutes to stabilize the luminescence signal. Luminescence values were read with a SpectraMax Multilabel Microplate Reader (MD, 2104-0010A).
Data were analyzed using GraphPad Prism 5.0 software, and nonlinear S-curve regression was used to fit the data to derive dose-response curves from which IC50 values were calculated.
Cell Viability (%)=(Lumdrug to be tested−Lumculture medium control)/(Lumcell control−Lumculture medium control)×100%.

Series [9] deals with H1975 cells (L858R and T790M double mutations). In words: Synergistic killing of tumor cells with AZD9291, H1975. In kind it is cell-based, human. The following applies: 72 hours. Here is the method: (§10) Human lung cancer cells H1975 cells (L858R and T790M double mutations) and HCC827 cells were incubated in an incubator (37° C., 5% CO2) with 1640 medium plus 10% FBS (fetal bovine serum) and 1% P/S (penicillin/ streptomycin) for culture. In the assay of the compound, H1975 cells or HCC827 were plated in a 96-well plate (Corning) at a concentration of 3000 cells/195 μL per well, and the compound was serially diluted to 11 concentrations starting from 10 mM, and 4 μL of each concentration was added into 96 μL of 1640 cluture medium and diluted to form 25× compound, then 5 μL was took and added to 195 μL of cell culture medium (DMSO final concentration is 0.1%, v/v). After 72 hours of treatment, 35 μL of CellTiter-Blue® (purchased from Promega) was added. The fluorescent signal was measured on Flex Station3 (Molecular Devices) according to the operating procedure of the manual, and the IC50 value of inhibition on cell proliferation of the compound was calculated using GraphPad Prism5.0. The Chou-Talalay combination index method was used to calculate the effect of the combination. The combination index (Col) value 0.9≤CI≤1.1 is an additive effect, 0.8≤CI<0.9 is a low synergistic effect, 0.6≤CI<0.8 is a moderate synergistic effect, and 0.4 <CI<0.6 is highly synergistic, and 0.2≤CI<0.4 is strong synergistic.

Series [10] has as its system HCC827 cells (MET overexpression). In words: Synergistic killing of tumor cells with AZD9291, HCC827. The format is cell-based, human. As to conditions: 72 hours. Here is the method: as §10

SRC, sequence (P12931 whole entry, looked up): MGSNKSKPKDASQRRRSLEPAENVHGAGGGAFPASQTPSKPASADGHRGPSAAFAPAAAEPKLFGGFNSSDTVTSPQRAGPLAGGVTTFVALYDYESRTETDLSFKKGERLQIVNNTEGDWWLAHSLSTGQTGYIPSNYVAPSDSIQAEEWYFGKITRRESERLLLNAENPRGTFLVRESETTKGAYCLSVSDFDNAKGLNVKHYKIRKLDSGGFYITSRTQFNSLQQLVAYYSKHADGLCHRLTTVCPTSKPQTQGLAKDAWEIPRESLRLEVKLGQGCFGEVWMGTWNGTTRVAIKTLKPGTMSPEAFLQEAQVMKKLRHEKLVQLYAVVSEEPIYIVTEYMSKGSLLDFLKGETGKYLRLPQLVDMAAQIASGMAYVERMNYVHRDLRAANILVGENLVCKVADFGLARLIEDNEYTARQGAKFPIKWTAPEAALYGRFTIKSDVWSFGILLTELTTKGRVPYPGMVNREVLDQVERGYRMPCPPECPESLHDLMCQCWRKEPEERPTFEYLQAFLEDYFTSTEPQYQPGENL
c-Met, sequence (P08581 25-1390): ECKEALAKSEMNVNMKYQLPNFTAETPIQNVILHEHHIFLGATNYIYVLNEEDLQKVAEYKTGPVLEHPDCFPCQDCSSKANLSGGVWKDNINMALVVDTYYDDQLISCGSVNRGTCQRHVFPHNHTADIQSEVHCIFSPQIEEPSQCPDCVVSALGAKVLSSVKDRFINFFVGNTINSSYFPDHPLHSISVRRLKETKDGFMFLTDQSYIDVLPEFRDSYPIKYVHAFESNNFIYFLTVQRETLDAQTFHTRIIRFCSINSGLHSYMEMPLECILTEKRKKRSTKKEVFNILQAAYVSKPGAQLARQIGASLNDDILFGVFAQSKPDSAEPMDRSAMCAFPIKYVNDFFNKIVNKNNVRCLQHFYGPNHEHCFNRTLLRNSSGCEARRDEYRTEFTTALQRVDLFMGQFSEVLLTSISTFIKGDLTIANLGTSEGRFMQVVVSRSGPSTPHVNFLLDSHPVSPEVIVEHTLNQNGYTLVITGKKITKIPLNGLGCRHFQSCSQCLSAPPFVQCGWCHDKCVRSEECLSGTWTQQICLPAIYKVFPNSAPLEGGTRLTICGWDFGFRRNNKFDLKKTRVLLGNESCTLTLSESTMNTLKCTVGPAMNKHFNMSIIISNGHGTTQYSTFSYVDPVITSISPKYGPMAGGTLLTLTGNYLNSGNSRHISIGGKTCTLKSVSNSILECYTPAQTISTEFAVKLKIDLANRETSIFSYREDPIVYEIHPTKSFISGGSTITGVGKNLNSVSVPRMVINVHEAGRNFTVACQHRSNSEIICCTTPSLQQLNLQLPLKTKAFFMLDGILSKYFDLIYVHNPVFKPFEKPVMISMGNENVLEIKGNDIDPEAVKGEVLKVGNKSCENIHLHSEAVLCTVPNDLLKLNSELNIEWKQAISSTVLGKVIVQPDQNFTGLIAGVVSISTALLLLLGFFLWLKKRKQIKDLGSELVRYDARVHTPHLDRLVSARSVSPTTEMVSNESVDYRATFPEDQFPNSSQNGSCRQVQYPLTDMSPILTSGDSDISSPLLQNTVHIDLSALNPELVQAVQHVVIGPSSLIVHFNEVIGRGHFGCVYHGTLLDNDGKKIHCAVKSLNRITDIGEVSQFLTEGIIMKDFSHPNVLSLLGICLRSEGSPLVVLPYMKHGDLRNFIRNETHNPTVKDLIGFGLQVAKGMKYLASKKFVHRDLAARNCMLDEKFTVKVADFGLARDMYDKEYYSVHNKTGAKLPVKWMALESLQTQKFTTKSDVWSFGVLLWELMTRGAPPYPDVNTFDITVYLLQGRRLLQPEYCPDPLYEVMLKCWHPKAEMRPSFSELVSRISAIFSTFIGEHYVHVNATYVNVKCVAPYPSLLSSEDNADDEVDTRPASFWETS
CSF1R, sequence (P07333 20-972): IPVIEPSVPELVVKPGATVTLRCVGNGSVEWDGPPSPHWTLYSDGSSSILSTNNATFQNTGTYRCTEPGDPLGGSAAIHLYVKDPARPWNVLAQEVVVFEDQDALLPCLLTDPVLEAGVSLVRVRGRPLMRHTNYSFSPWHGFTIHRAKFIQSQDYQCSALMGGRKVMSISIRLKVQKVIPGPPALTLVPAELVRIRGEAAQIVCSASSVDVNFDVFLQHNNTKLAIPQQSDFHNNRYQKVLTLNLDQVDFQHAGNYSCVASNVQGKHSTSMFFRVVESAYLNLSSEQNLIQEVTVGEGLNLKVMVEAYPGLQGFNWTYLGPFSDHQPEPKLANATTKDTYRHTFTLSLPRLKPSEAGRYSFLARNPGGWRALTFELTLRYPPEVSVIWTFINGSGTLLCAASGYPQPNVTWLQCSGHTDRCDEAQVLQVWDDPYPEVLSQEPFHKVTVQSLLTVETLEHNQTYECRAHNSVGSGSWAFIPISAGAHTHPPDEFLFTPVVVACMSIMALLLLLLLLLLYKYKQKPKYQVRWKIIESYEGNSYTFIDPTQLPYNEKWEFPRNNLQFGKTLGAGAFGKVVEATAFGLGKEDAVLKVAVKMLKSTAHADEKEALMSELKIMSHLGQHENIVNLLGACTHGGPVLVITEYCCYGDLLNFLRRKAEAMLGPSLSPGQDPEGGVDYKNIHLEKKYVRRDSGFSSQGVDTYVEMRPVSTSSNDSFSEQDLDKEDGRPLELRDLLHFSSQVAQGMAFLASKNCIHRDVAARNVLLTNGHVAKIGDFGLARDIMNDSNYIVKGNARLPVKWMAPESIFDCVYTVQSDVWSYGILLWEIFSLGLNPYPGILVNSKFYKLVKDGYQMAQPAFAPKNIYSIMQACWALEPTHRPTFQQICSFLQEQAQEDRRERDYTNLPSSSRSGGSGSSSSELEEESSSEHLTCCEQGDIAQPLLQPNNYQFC

What is called IC50 is the point on the concentration scale where inhibition reaches its midpoint. For the compound `CCN1Cc2c(ccc(F)c2C#N)O[C@@H](C)COC(=O)c2c(N)nn3ccc1nc23` [Example 2, (S, 1^3E, 1^4E)-1^2-amino-2-ethyl-4^5-fluoro-6-methyl-9-oxo-5,8-dioxa-2-aza-1(5,3)-pyrazolo[1,5-a]pyrimidine-4(1,2)-benzocyclononane-4^6 carbonitrile], the IC50 stood at 1.8 nM in [1]; 7 nM in series [3]; 30 nM in series [4]; 3.36 nM in series [5]; 2.2 nM in [6]. Further, the pharmacokinetic properties entry in series [2] is “better pharmacokinetic and pharmacokinetic properties”.

As for `CCN1Cc2c(ccc(F)c2C#N)O[C@@H](C)COC(=O)c2cnn3ccc1nc23` [Example 1, (S, 1^3E, 1^4E)-2-ethyl-45-fluoro-6-methyl-9-oxo-5,8-dioxa-2-aza-1(5,3)-pyrazolo[1,5-a]pyrimidine-4(1,2)-benzocyclononane-4^6-carbonitrile], in [7] (Sprague-Dawley (SD), rat, brain / plasma, oral, 10 mg/kg gavage, 0.25, 0.5, 2 and 6 hours, read-out: drug brain/blood distribution ratio), the Kp was 1.16 to 6.4. Further, in series [7] (10 mg/kg gavage), the “entry into brain tissue” value is listed as “can enter the brain tissue”. In series [8], the “inhibitory effect on HCC827 cells” value is reported as “very obvious inhibitory effect”. Besides, the IC50 in series [1] is 0.93 nM; in series [3] it was 3.4 nM; in [4], 15 nM; in series [5], 1.83 nM; in series [6] it was 0.42 nM. Besides, the pharmacokinetic properties result in series [2] was “better pharmacokinetic and pharmacokinetic properties”. For the same compound, the “combination effect with AZD9291 (Chou-Talalay combination index)” value in series [9] and in series [10] was “moderate to high synergistic effect” each time.

On to `CCN1Cc2c(ccc(F)c2C#N)O[C@@H](C)CNC(=O)c2c(N)nn3ccc1nc23` [TPX-0022, reference compound], for which the values for the 50% inhibitory concentration (IC50) in series [4] and in [5] were 7.5 nM and 6.26 nM, respectively.

For `C[C@H]1COC(=O)c2cnn3ccc(nc23)N[C@H](C)c2cc(F)ccc2O1` [Comparative Compound 42, reference compound], the values for the IC50 in series [1], in series [4] and in series [6] were 85 nM, 289 nM and above 10000 nM, respectively.

(Values after patent US20240132517A1, “MACROCYCLIC COMPOUND, PHARMACEUTICAL COMPOSITION, AND USE THEREOF” (GOHARMONY THERAPEUTICS (SHENZHEN) CO., LTD., priority 2021, published 2024).)
